# Reference: US20060069132A1, “Azolecarboxamide herbicides” (priority 2004, published 2006)
# Legend:
# [1] = system: smallflower umbrella sedge; assay: Test C flooded paddy test; format: in vivo, Cyperus difformis
# velvetleaf = assay: Test B pre-/postemergence herbicide test; format: in vivo, Abutilon theophrasti; settings: for Velvetleaf plant response rating: postemergence
# In short: (§1)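 Response was scored visually 13 to 15 days after treatment against untreated greenhouse controls, 0 meaning no effect and 100 complete control. Formulations (solvent mixture plus surfactant) went onto soil after planting, onto foliage of 1- to 4-leaf plants, and onto 2-leaf plants in a flooded paddy set including rice and barnyardgrass.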
# rice [2] = assay: Test B flooded paddy test; format: in vivo, Oryza sativa; settings: 1000 g ai/ha, scale 0 to 100 (0 no effect, 100 complete control)
# In short: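 Postemergence plants were sprayed with formulated test chemicals at 2 to 18 cm height (1- to 4-leaf stage); paddy species were grown to the 2-leaf stage. After 13 to 15 days in a greenhouse, injury was rated visually against untreated controls on a 0–100 scale (0 = no effect, 100 = complete control).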
# wheat = assay: Test B postemergence herbicide test; format: in vivo, Triticum aestivum; design: key to Wheat plant response rating: 0 = no effect, 100 = complete control; settings: postemergence
# In short: (§2)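 Formulated test chemicals went onto postemergence plants measuring 2 to 18 cm, at one to four leaves. For the paddy assay, species had reached two leaves. Scoring took place 13–15 days later by eye, relative to untreated plants, using 0 for no effect up to 100 for full control.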
# large crabgrass = assay: Test B pre-/postemergence herbicide test; format: in vivo, Digitaria sanguinalis; settings: for Crabgrass, Large plant response rating: postemergence
# In short: as §1
# ducksalad [3] = assay: Test C flooded paddy test; format: in vivo, Heteranthera limosa
# wild oat = assay: Test B postemergence herbicide test; format: in vivo, Avena fatua; settings: postemergence
# In short: as §2
# corn = assay: Test B pre-/postemergence herbicide test; format: in vivo, Zea mays; settings: for Corn plant response rating: postemergence
# In short: as §1
# barnyardgrass [4] = assay: Test B flooded paddy test; format: in vivo, Echinochloa crus-galli; settings: 1000 g ai/ha, scale 0 to 100 (0 no effect, 100 complete control)
# In short: (§3)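 Visual control ratings, 0–100 versus untreated controls, taken after 13 to 15 days in the greenhouse. Blackgrass received a postemergence spray at the 1- to 4-leaf stage (2–18 cm); ducksalad, umbrella sedge and barnyardgrass were flooded-paddy treated at 2 leaves.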
# lambsquarters = assay: Test B pre-/postemergence herbicide test; format: in vivo, Chenopodium album; settings: for Lambsquarters plant response rating: postemergence
# In short: as §1
# pigweed = assay: Test B pre-/postemergence herbicide test; format: in vivo, Amaranthus retroflexus; settings: for Pigweed plant response rating: postemergence
# In short: as §1
# blackgrass = assay: Test B postemergence herbicide test; format: in vivo, Alopecurus myosuroides; settings: postemergence, visual rating, scale 0 (no effect) to 100 (complete control)
# In short: as §3
# cocklebur = assay: Test B pre-/postemergence herbicide test; format: in vivo, Xanthium strumarium; settings: for Cocklebur plant response rating: postemergence, scale 0 (no effect) to 100 (complete control)
# In short: as §1
# giant foxtail = assay: Test B pre-/postemergence herbicide test; format: in vivo, Setaria faberi; settings: for Foxtail, Giant plant response rating: postemergence
# In short: as §1
# barnyardgrass [5] = assay: Test C flooded paddy test; format: in vivo, Echinochloa crus-galli
# In short: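 Greenhouse test with a 12–14 day hold after application and visual comparison with controls. Emerged plants were 1- to 4-leaf stage (2–18 cm) when sprayed postemergence, and the paddy barnyardgrass was at 2 leaves under flooded conditions. 100 = complete control.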
# ducksalad [6] = assay: Test B flooded paddy test; format: in vivo, Heteranthera limosa; settings: 1000 g ai/ha, scale 0 to 100 (0 no effect, 100 complete control)
# In short: as §3
# rice [7] = assay: Test B pre-/postemergence herbicide test; format: in vivo, Oryza sativa; settings: 0 = no effect, 100 = complete control, preemergence
# In short: as §1
# [8] = system: small flower umbrella sedge; assay: Test B flooded paddy test; format: in vivo, Cyperus difformis; settings: 1000 g ai/ha, scale 0 to 100 (0 no effect, 100 complete control)
# In short: as §3
# morningglory = assay: Test B pre-/postemergence herbicide test; format: in vivo, Ipomoea coccinea; settings: for Morningglory plant response rating: postemergence
# In short: as §1
# barnyardgrass [9] = assay: Test B pre-/postemergence herbicide test; format: in vivo, Echinochloa crus-galli; settings: for Barnyardgrass plant response rating: postemergence, scale 0 (no effect) to 100 (complete control)
# In short: as §1
# Surinam grass = assay: Test B pre-/postemergence herbicide test; format: in vivo, Urochloa decumbens; settings: for Surinam Grass plant response rating: postemergence
# In short: as §1
# rice [10] = assay: Test C flooded paddy test; format: in vivo, Oryza sativa
# In short: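 Injury scored visually against controls on a 0 (no effect) to 100 (complete control) scale, 12 to 14 days after treatment in greenhouse. Flooded paddy plants treated at 2-leaf stage; postemergence plants at 1- to 4-leaf stage, 2 to 18 cm tall.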
# [11] = 125 g ai/ha, scale 0 to 100 (0 no effect, 100 complete control)
# [12] = 250 g ai/ha, scale of 0 to 100, 0 is no effect, 100 is complete control
# [13] = 500 g ai/ha, visual rating after 12 to 14 days, scale 0 to 100 (0 no effect, 100 complete control)
# [14] = 125 g ai/ha, 0 = no effect, 100 = complete control, preemergence
# [15] = 500 g ai/ha, visual rating, 0 = no effect, 100 = complete control, preemergence
# [16] = 125 g ai/ha, visual rating, scale 0 (no effect) to 100 (complete control)
# [17] = 500 g ai/ha, scale 0 to 100, 0 is no effect, 100 is complete control
smiles,measurement,setting,value
CCNC(=O)c1cncc(NC(=O)c2cc(C(C)(C)C)nn2CC)c1 [Compound 259],"Sedge, Umbrella plant response rating","[1]; 62 g ai/ha, scale 0 to 100",0
same,"Sedge, Umbrella plant response rating",[1]; [11],35
same,"Sedge, Umbrella plant response rating",[1]; [12],55
same,"Plant response rating, Sedge, Umbrella",[1]; [13],70
same,Velvetleaf plant response rating (0 to 100 scale),velvetleaf; [14],0
same,"Plant response rating, Velvetleaf",velvetleaf; [15],0
same,Velvetleaf plant response rating,velvetleaf; [16],0
same,Velvetleaf plant response rating,velvetleaf; [17],0
same,Rice plant response rating,rice [2],70
same,Wheat plant response rating,wheat; [16],10
same,Wheat plant response rating,wheat; [17],20
same,"Crabgrass, Large plant response rating (0 to 100 scale)",large crabgrass; [14],0
same,"Plant response rating, Crabgrass, Large",large crabgrass; [15],50
same,"Crabgrass, Large plant response rating",large crabgrass; [16],0
same,"Crabgrass, Large plant response rating",large crabgrass; [17],20
same,Ducksalad plant response rating,"ducksalad [3]; 62 g ai/ha, scale 0 to 100",0
same,Ducksalad plant response rating,ducksalad [3]; [11],60
same,Ducksalad plant response rating,ducksalad [3]; [12],65
same,"Plant response rating, Ducksalad",ducksalad [3]; [13],75
same,"Oat, Wild plant response rating",wild oat; [16],10
same,"Oat, Wild plant response rating",wild oat; [17],20
same,Corn plant response rating (0 to 100 scale),corn; [14],0
same,"Plant response rating, Corn",corn; [15],0
same,Corn plant response rating,corn; [16],10
same,Corn plant response rating,corn; [17],20
same,Barnyardgrass plant response rating,barnyardgrass [4],30
same,Lambsquarters plant response rating (0 to 100 scale),lambsquarters; [14],0
same,Lambsquarters plant response rating,lambsquarters; [16],10
same,Lambsquarters plant response rating,lambsquarters; [17],30
same,Pigweed plant response rating (0 to 100 scale),pigweed; [14],0
same,"Plant response rating, Pigweed",pigweed; [15],100
same,Pigweed plant response rating,pigweed; [16],30
same,Pigweed plant response rating,pigweed; [17],90
same,Blackgrass plant response rating,blackgrass; 125 g ai/ha,10
same,Blackgrass plant response rating,blackgrass; 500 g ai/ha,20
same,Cocklebur plant response rating (0 to 100 scale),cocklebur; [14],0
same,"Plant response rating, Cocklebur",cocklebur; [15],0
same,Cocklebur plant response rating,"cocklebur; 125 g ai/ha, visual rating",0
same,Cocklebur plant response rating,"cocklebur; 500 g ai/ha, visual rating",20
same,"Foxtail, Giant plant response rating (0 to 100 scale)",giant foxtail; [14],0
same,"Plant response rating, Foxtail, Giant",giant foxtail; [15],70
same,"Foxtail, Giant plant response rating",giant foxtail; [16],0
same,"Foxtail, Giant plant response rating",giant foxtail; [17],0
same,Barnyardgrass plant response rating,"barnyardgrass [5]; 62 g ai/ha, scale 0 to 100 (0 no effect, 100 complete control)",0
same,Barnyardgrass plant response rating,barnyardgrass [5]; [11],0
same,Barnyardgrass plant response rating,barnyardgrass [5]; [12],0
same,"Plant response rating, Barnyardgrass",barnyardgrass [5]; [13],0
same,Ducksalad plant response rating,ducksalad [6],90
same,Rice plant response rating (0 to 100 scale),rice [7]; 125 g ai/ha,0
same,"Plant response rating, Rice","rice [7]; 500 g ai/ha, visual rating",0
same,"Sedge, Umbrella plant response rating",[8],70
same,Morningglory plant response rating (0 to 100 scale),morningglory; [14],0
same,"Plant response rating, Morningglory",morningglory; [15],90
same,Morningglory plant response rating,morningglory; [16],0
same,Morningglory plant response rating,morningglory; [17],0
same,Barnyardgrass plant response rating (0 to 100 scale),barnyardgrass [9]; [14],0
same,"Plant response rating, Barnyardgrass",barnyardgrass [9]; [15],70
same,Barnyardgrass plant response rating,"barnyardgrass [9]; 125 g ai/ha, visual rating",0
same,Barnyardgrass plant response rating,"barnyardgrass [9]; 500 g ai/ha, visual rating",0
same,Surinam Grass plant response rating (0 to 100 scale),Surinam grass; [14],0
same,"Plant response rating, Surinam Grass",Surinam grass; [15],30
same,Surinam Grass plant response rating,Surinam grass; [16],10
same,Surinam Grass plant response rating,Surinam grass; [17],20
same,Rice plant response rating,"rice [10]; 62 g ai/ha, scale 0 to 100",0
same,Rice plant response rating,rice [10]; [11],0
same,Rice plant response rating,rice [10]; [12],0
same,"Plant response rating, Rice",rice [10]; [13],0
